Test results published in US12377069B2, “Compounds, compositions, methods of using, and methods for preparing compounds” (UNIVERSITY OF LOUISVILLE RESEARCH FOUNDATION, INC., priority 2018, dated 2025).

Legend:
BMDM = test: Nrf2-dependent pathways in macrophages; format: cell-based, mouse; conditions: 50 μM
Protocol: The data is separately presented for each time point (No TNBS− Solid black line; Veh+TNBS− Solid red line; UroA+TNBS− Solid blue line; UAS03+TNBS− Solid purple line). The data is separately presented for each time point. (No TNBS− Solid black line; Veh+TNBS− Solid red line; UroA+TNBS− Solid blue line; UAS03+TNBS− Solid purple line). (C-G) UroA/UAS03 activate Nrf2-dependent pathways in BMDM. (C) Wild type BMDM were isolated and cultured for 7 days. BMDM were treated with Veh (0.01% DMSO) or UroA or UAS03 (50 μM) for 6 h and total RNA was isolated. Nrf2 levels were measured using SyBR green Real Time PCR method. (D) Veh or UroA or UAS03 treated BMDM cell lysates were immunoblotted for Nrf2. (E) The nuclear and cytosolic fractions of BMDMs were immnunobloted for Nr2. Lamin B and β-actin were used as normalizing proteins. […] The expression of Nrf2 was determined by immunofluorescence staining using anti-Nrf2 followed by secondary antibody tagged with Alexa-488 dye and DAPI was used to stain nucleus. The fluorescence images were captured using Nikon A1R confocal microscope at 60× magnification and green fluorescence (n=>15 cells) was measured using Nikon elements software. […] NF-κB activation was evaluated by EMSA assays. […] The fold change over basal was calculated using its own control. […]

P-glycoprotein (P-gp) = P-glycoprotein (P-gp) (Homo sapiens, UniProt P08183)
Chain of P-glycoprotein (P-gp) (P08183 whole entry): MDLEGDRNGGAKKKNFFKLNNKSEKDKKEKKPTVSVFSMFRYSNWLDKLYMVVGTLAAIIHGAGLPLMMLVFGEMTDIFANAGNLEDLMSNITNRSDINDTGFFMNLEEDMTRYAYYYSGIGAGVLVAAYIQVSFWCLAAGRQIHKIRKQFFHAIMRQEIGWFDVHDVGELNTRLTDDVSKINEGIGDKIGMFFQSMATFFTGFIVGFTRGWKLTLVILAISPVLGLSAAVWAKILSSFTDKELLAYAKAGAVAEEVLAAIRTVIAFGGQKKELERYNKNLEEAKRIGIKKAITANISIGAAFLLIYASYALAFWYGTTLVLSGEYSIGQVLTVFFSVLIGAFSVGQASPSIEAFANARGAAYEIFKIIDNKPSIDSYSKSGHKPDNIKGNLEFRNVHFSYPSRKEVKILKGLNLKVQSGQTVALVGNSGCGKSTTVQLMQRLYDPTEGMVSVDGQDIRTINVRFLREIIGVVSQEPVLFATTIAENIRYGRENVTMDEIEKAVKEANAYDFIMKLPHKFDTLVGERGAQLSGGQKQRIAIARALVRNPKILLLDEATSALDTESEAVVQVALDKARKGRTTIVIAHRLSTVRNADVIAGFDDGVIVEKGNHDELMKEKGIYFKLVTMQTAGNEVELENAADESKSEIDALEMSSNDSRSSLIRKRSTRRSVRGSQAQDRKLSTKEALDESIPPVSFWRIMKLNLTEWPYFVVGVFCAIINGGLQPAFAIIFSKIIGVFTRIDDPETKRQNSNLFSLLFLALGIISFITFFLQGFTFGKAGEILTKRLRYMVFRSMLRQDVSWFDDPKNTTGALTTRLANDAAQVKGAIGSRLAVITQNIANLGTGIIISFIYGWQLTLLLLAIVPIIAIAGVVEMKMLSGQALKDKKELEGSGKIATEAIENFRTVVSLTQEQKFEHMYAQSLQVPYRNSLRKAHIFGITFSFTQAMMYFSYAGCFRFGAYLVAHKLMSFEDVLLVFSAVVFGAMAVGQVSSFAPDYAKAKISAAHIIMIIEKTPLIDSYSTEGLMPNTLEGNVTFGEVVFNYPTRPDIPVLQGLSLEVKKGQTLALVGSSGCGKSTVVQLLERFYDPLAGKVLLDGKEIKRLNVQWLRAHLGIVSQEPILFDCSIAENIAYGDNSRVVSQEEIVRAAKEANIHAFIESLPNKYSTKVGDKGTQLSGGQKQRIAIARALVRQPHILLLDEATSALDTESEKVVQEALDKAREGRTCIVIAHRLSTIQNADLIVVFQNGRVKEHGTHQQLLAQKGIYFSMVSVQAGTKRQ
Excerpt: Therefore, blocking its activity and/or downregulating the expression of BCRP, P-gp could reverse the effect and sensitize the cancer cells.

C57BL/6 mice = test: Chronic low dose alcohol model; format: in vivo, mouse; conditions: 20 mg/kg orally 2 h prior to EtOH 3 g/kg twice daily, 5 days
Protocol: C57BL/6 mice (10 wk old age) were used in low dose chronic ALD models. Mice were treated with EtOH (3 g/kg) daily twice orally for 5 days at 3 g/kg, UroA (20 mg/kg) was given orally 2 h prior to EtOH treatment. Mice were euthanized on day 6 and analyzed the indicated parameters. Error bars, ±SEM. Statistics were performed using 2 way ANOVA multiple comparisons. * p<0.05, ** p<0.01, *** p<0.001.
C57BL/6 mice (n=5 per group) were treated with EtOH (3 g/kg) twice daily orally for 5 days. UroA (20 mg/kg) was given orally 2 h prior to EtOH treatment. We evaluated gut permeability and inflammation parameters both in serum and liver (FIG. 17).

SMILES | Nrf2 expression, nuclear translocation and HO1 in macrophages (BMDM) | drug efflux activity of P-glycoprotein (P-gp) (P-glycoprotein (P-gp)) | efflux of Rh123 (P-glycoprotein (P-gp); 50 μM) | chronic low dose alcohol induced gut barrier dysfunction and inflammation (C57BL/6 mice)
Oc1ccc2c(c1)COc1cc(O)ccc1-2 [UAS03, 6H-benzo[c]chromene-3,8-diol] | upregulated Nrf2 expression and induced its nuclear translocation | – | – | –
O=c1oc2cc(O)ccc2c2ccc(O)cc12 [UroA, 3,8-dihydroxy-6H-dibenzo[b,d]pyran-6-one] | upregulated Nrf2 expression and induced its nuclear translocation | decreased drug efflux activities | blocked efflux of Rh123 | protects against
